Assays:
[1] = Long term stability test; assay type: physicochemical; settings: 25° C.±2° C., relative humidity 60%±10%; for Content of C25H21F2NO3, based on anhydride: shall be no less than 97.0%; for Relevant substances: Single maximum unknown foreign matter: shall not exceed 0.3%; for Relevant substances: Total foreign matter: shall not exceed 1.5%; for Moisture: shall not exceed 2.0%
Protocol: In accordance with the stability test guiding principles (Chinese Pharmacopoeia 2010 Edition 2—Annex XIX C), prepare the samples of the crystal form I of the compound of formula A described in embodiment 6 in a commercial package, place the samples in a thermotank at the temperature of 25° C.±2° C. with the relative humidity of 60%±10%, take each sample from the samples once at the ends of the third month, the sixth month and the ninth month respectively to detect the key stability inspection items of each sample and compare with the result of the sample at the zero day, wherein see Table 3 for the comparisons.

[2] = Accelerated stability test; assay type: physicochemical; settings: 40° C.±2° C., relative humidity 75%±5%; for Melting point / Content of C25H21F2NO3, based on anhydride / Relevant substances: Single maximum unknown foreign matter / Relevant substances: Total foreign matter / Moisture / Relevant substances: Diastereomer: commercial package; for Melting point: limit 149-153° C.; for Content of C25H21F2NO3, based on anhydride: shall be no less than 97.0%; for Relevant substances: Single maximum unknown foreign matter: shall not exceed 0.3%; for Relevant substances: Total foreign matter: shall not exceed 1.5%; for Moisture: shall not exceed 2.0%; for Relevant substances: Diastereomer: shall not exceed 1.0%
Protocol: In accordance with the stability test guiding principles (Chinese Pharmacopoeia 2010 Edition 2—Annex XIX C), prepare the sample of the crystal form I of the compound of formula A described in embodiment 6 in a commercial package, place the samples in a thermotank at the temperature of 40° C.±2° C. with the relative humidity of 75%±5%, with the duration of 6 months, take each sample once at the ends of the first month, the second month, the third month and the sixth month respectively to detect the key stability inspection items and compare with the results of the sample at the zero day, wherein see Table 4 for the comparisons.

[3] = commercial package, month 9, shall not exceed 0.5%

Content of C25H21F2NO3, based on anhydride ([1]; commercial package, month 0): 98.74%
Relevant substances: Single maximum unknown foreign matter ([1]; commercial package, month 0): 0.097%
Relevant substances: Total foreign matter ([1]; commercial package, month 0): 0.342%
Moisture ([1]; commercial package, month 0): 0.23%
Content of C25H21F2NO3, based on anhydride ([1]; commercial package, month 3): 98.99%
Relevant substances: Single maximum unknown foreign matter ([1]; commercial package, month 3): 0.1013%
Relevant substances: Total foreign matter ([1]; commercial package, month 3): 0.3488%
Moisture ([1]; commercial package, month 3): 0.41%
Content of C25H21F2NO3, based on anhydride ([1]; commercial package, month 6): 98.83%
Relevant substances: Single maximum unknown foreign matter ([1]; commercial package, month 6): 0.0956%
Relevant substances: Total foreign matter ([1]; commercial package, month 6): 0.3551%
Moisture ([1]; commercial package, month 6): 0.56%
Content of C25H21F2NO3, based on anhydride ([1]; commercial package, month 9): 98.91%
Relevant substances: Single maximum unknown foreign matter ([1]; commercial package, month 9): 0.0940%
Isomer: E-isomer [1, 3]: 0.0161%
Isomer: Enantiomer [1, 3]: 0.0587%
Relevant substances: Total foreign matter ([1]; commercial package, month 9): 0.3581%
Moisture ([1]; commercial package, month 9): 0.32%
Melting point ([2]; month 0): 149.8-152.1 °C
Content of C25H21F2NO3, based on anhydride ([2]; month 0): 98.71%
Relevant substances: Single maximum unknown foreign matter ([2]; month 0): 0.097%
Relevant substances: Total foreign matter ([2]; month 0): 0.342%
Moisture ([2]; month 0): 0.20%
Melting point ([2]; month 1): 149.3-151.5 °C
Content of C25H21F2NO3, based on anhydride ([2]; month 1): 99.11%
Relevant substances: Single maximum unknown foreign matter ([2]; month 1): 0.1004%
Relevant substances: Diastereomer ([2]; month 1): 0.0128%
Relevant substances: Total foreign matter ([2]; month 1): 0.3757%
Moisture ([2]; month 1): 0.30%
Melting point ([2]; month 2): 149.7-152.1 °C
Content of C25H21F2NO3, based on anhydride ([2]; month 2): 98.82%
Relevant substances: Single maximum unknown foreign matter ([2]; month 2): 0.0856%
Relevant substances: Diastereomer ([2]; month 2): Not detected
Relevant substances: Total foreign matter ([2]; month 2): 0.3650%
Moisture ([2]; month 2): 0.28%
Melting point ([2]; month 3): 149.7-152.1 °C
Content of C25H21F2NO3, based on anhydride ([2]; month 3): 98.78%
Relevant substances: Single maximum unknown foreign matter ([2]; month 3): 0.0983%
Relevant substances: Diastereomer ([2]; month 3): Not detected
Relevant substances: Total foreign matter ([2]; month 3): 0.3717%
Moisture ([2]; month 3): 0.37%
Melting point ([2]; month 6): 149.5-151.9 °C
Content of C25H21F2NO3, based on anhydride ([2]; month 6): 97.97%
Relevant substances: Single maximum unknown foreign matter ([2]; month 6): 0.2017%
Relevant substances: Diastereomer ([2]; month 6): Not detected
Relevant substances: Total foreign matter ([2]; month 6): 1.0828%
Moisture ([2]; month 6): 0.44%
Compound: O=C1[C@H](C/C=C(\CO)c2ccc(F)cc2)[C@@H](c2ccc(O)cc2)N1c1ccc(F)cc1 [crystal form I, (3R,4S)-4-(4-hydroxyphenyl)-3-[3-(4-fluorophenyl)-4-hydroxybut-2(Z)-enyl]-1-(4-fluorophenyl)-2-azetidinone]
Long term stability, conclusion on inspection indexes ([1]; nine month): various inspection indexes of the samples do not change apparently and all meet the specifications
Accelerated stability, conclusion on inspection indexes ([2]; 6 months): the relevant substances are grown significantly in the sixth month and the content is reduced at a certain level; however, both of the two are within the acceptable range

Reference: US9802891B2, “Crystal forms of azetidinone compounds and preparing methods thereof” (Zhejiang Hisun Pharmaceutical Co., Ltd., priority 2012, dated 2017)
